One block for each molecule: values may come before it.
Tests used:
SC-CA1 synapse [1] = assay: Chemically-induced slow-onset potentiation (L-LTP), fEPSP recording in hippocampal slices; assay type: cell-based, mouse; design: dose or concentration left out as unconfirmed
Procedure: (§1) Transverse hippocampal slices were prepared as previously described (Abel et al., 1997). Mice of either sex, aged 7-18 weeks were used. Where appropriate, the experimenter was blind to animal genotype. […] For extracellular recordings, ACSF-filled glass electrodes (1-3 MW) were positioned in the stratum radiatum of area CA1. A bipolar nichrome stimulating electrode was also placed in stratum radiatum for stimulation of Schaffer collateral afferents (0.05 ms duration). Unless otherwise mentioned, test stimuli were applied at a frequency of 1 per minute (0.017 Hz), and at a stimulus intensity that elicits a fEPSP slope that was 35% of the maximum. Experiments in which changes in the fiber volley occurred, were discarded. Drugs were applied through the perfusion medium. DL-AP5, calyculin A, KT5720 and R(+)-6-Bromo-7,8-dihydroxy-3-allyl-1-phenyl-2,3,5-tetrahydro-1H-3-benzazepine (6-Br-APB) were purchased from Research Biochemicals International, Natick, Mass.

SC-CA1 synapse [2] = assay: LTP induced by two 100 Hz trains in hippocampal slices in the presence of drugs; assay type: cell-based, mouse; design: Sensitivity of LTP elicited by two trains to preincubation with the drug: dose or concentration left out as unconfirmed
Procedure: as §1

SC-CA1 synapse [3] = assay: LTP induced by four 100 Hz trains in hippocampal slices in the presence of drugs; assay type: cell-based, mouse; details: wild-type slices; KT5720, 20 minute pretreatment; anisomycin 30 μM one hour
Procedure: as §1

SC-CA1 synapse [4] = assay: LTP induced by two trains in slices of Tet-CN279 mice on or off doxycycline (tTA system); assay type: cell-based, mouse
Procedure: as §1
The transgenic mice CN279 and CN273 were generated by microinjection of the linear construct as previously described (Hogan et al., 1994; Winder et al., 1998). Analysis of founder mice for integration of the transgene was performed by Southern blotting and PCR. The founder mice were backcrossed to C57BL6 F1/J mice to generate the transgenic lines CN279 and CN273. […]

[5] = tested on: Schaffer collateral CA1 pathway; assay: LTP induced by two 100 Hz trains (I-LTP) in slices of rTet-CN279 mice treated with doxycycline (rtTA system); assay type: cell-based, mouse; details: ACSF 6 ng doxycycline/ml
Procedure: Recordings were performed as described in Winder et al., (1998). […] Test stimuli were applied at a frequency of 1 per min at an intensity that elicits an EPSP with a slope of […] of maximum. Slices from mice treated with doxycycline were incubated in ACSF containing doxycycline (6 ng/ml) for 2-3 hours before the tetanus was applied and subfused with doxycycline solution throughout the recordings.

calcineurin [6] = assay: Phosphatase assay in hippocampal extracts of CN98 mice; assay type: biochemical, mouse; details: CN98 mutant and wild-type hippocampal extracts
Procedure: Phosphatase assays were performed according to Hubbard and Klee (1991). Briefly, mice were injected with 5 ml/kg of pentobarbital and decapitated. Hippocampi were homogenized in 2 mM EDTA (pH 8), 250 mM sucrose, 0.1% β-mercaptoethanol and centrifuged. Supernatants were diluted in 40 mM Tris-HCl (pH 8), 0.1 M NaCl, 0.4 mg/ml bovine serum albumin, 1 mM DTT, […] okadaic acid (Buffer 1) and incubated at 30° C. for 1 min in Buffer 1 containing […] of the peptide [γ^32p]-RII subunit of cyclic AMP-dependent protein kinase (PKA) and either 0.1 mM calmodulin (SIGMA®) and 0.66 mM Ca^2( or 0.33 mM EGTA (pH 7.5). The peptide [Ala^97]-RII (Peninsula Labs) was labeled with 0.3 mM [γ^32p] ATP (NEN®) using […] catalytic subunit of PKA (FLUKA®). The reaction was stopped with 5% TCA in 0.1 M KH2PO4 and the enzyme activity was calculated as previously described (Klee et al., 1983) and is expressed in nmol Pi released/min/mg protein. The protein concentration was determined using the bicinchroninic acid protein assay kit (SIGMA®). All samples were performed in triplicate.

calcineurin [7] = assay: Phosphatase assay in hippocampal extracts of Tet-CN279 and Tet-CN273 mice; assay type: biochemical, mouse
Procedure: Phosphatase assays were performed as described in Winder et al., 1998. Briefly, mice were injected with 5 ml/kg of pentobarbital and decapitated. Hippocampi were dissected out, homogenized in 2 mM EDTA (pH 8), 250 mM sucrose, 0.1% β-mercaptoethanol. Supernatants were incubated at 30° C. for 1 min in presence of the […] [[…]]-RII peptide and either 0.1 mM calmodulin and 0.66 mM Ca^2+ or 0.33 mM EGTA. The reaction was stopped and the enzyme activity calculated previously as described (Klee et al., 1983; 1987). The activity was expressed in nmol Pi released/min/mg protein. The protein concentration was determined using the bicinchroninic acid protein assay kit (SIGMA®). All samples were performed in triplicate.

calcineurin [8] = assay: Phosphatase assay in hippocampal extracts of rTet-CN279 mice; assay type: biochemical, mouse; details: extracts from control and mutant mice not treated or treated with doxycycline
Procedure: Phosphatase assays were performed as described in Winder et al., 1998. Briefly, hippocampal extracts from rTet-CN279 adult mice were prepared in 2 mM EDTA (pH 8), 250 mM sucrose, 0.1% b-mercaptoethanol. Supernatants were incubated at 30° C. for 1 min in the presence of […] [[…]]-RII peptide and either 0.1 mM calmodulin and 0.66 mM Ca^2( or 0.33 mM EGTA. The enzyme activity was expressed in nmol Pi released/min/mg protein.

NMDA receptors = assay: NMDA-mediated synaptic potentials in hippocampal slices (DNQX, reduced Mg2+); assay type: cell-based, mouse; details: 50 (M DL-AP5); 10 (M DNQX, Mg2+ 50 μM)
Procedure: as §1

[9] = tested on: protein synthesis in area CA1; details: 30 μM; Stanton and Sarvey, 1984; Osten et al., 1996; cited from earlier work

SMILES: Nc1ncnc2c1ncn2[C@@H]1O[C@@H]2COP(O)(=S)O[C@H]2[C@H]1O (stereo partly drawn) [Sp-cAMPS]
fEPSP slope, % of baseline at 3 hr after drug application (SC-CA1 synapse [1]; CN98 mutant slices): 122±17 % of baseline | fEPSP slope, % of baseline at 3 hr after drug application (SC-CA1 synapse [1]; wild-type slices): 124±13 % of baseline

SMILES: CCCCCCOC(=O)[C@]1(O)C[C@@H]2O[C@@]1(C)n1c3ccccc3c3c4c(c5c6ccccc6n2c5c31)C(=O)NC4 [KT5720]
LTP elicited by two trains, % of baseline at 1 hr (SC-CA1 synapse [2]; wild-type slices, KT5720, no drug 206±23%): 153±5 % of baseline | Decay of LTP induced by four 100 Hz trains, compared with anisomycin (SC-CA1 synapse [3]): much more rapid decay of LTP

SMILES: C[C@H]1c2cccc(O)c2C(=O)C2=C(O)[C@]3(O)C(=O)C(C(N)=O)=C(O)[C@@H](N(C)C)[C@@H]3[C@@H](O)[C@@H]21 [doxycycline]
LTP induced by two trains, % of baseline at 1 hr (SC-CA1 synapse [4]; Tet-CN279 Wt on doxycycline (1 mg/ml water, 1 ng/ml ACSF)): 191±18 % of baseline | LTP induced by two trains, % of baseline at 1 hr (SC-CA1 synapse [4]; Tet-CN279 mutant on doxycycline (1 mg/ml water, 1 ng/ml ACSF)): 184±18 % of baseline | LTP induced by two 100 Hz trains (I-LTP), % of baseline at 1 hour ([5]; rTet-CN279 Control dox): 195±9 % of baseline | LTP induced by two 100 Hz trains (I-LTP), % of baseline at 1 hour ([5]; rTet-CN279 Mutant dox): 141±8 % of baseline

Phosphatase activity (calcineurin [7]; mutant (Tet-CN279+Tet-CN273)+EGTA): 0.287±0.17 nmol Pi/min/mg | Phosphatase activity (calcineurin [7]; wild-type (Tet-CN279+Tet-CN273)+EGTA): 0.432±0.11 nmol Pi/min/mg
SMILES: O=C(O)CN(CCOCCOCCN(CC(=O)O)CC(=O)O)CC(=O)O [EGTA]
Phosphatase activity in the presence of the calcium chelator (calcineurin [6]): virtually abolished | Phosphatase activity in the presence of the Ca2+ chelator (calcineurin [8]): blocked

SMILES: NC(CCCP(=O)(O)O)C(=O)O (racemic) [DL-AP5]
NMDA-mediated field potentials in the presence of the drug (NMDA receptors): abolished

SMILES: C=CCN1CCc2c(cc(O)c(O)c2Br)[C@@H](c2ccccc2)C1 [6-Br-APB, R(+)-6-Bromo-7,8-dihydroxy-3-allyl-1-phenyl-2,3,5-tetrahydro-1H-3-benzazepine]
fEPSP slope, % of baseline at 3 hr after drug application (SC-CA1 synapse [1]; CN98 mutant slices): 181±41 % of baseline | fEPSP slope, % of baseline at 3 hr after drug application (SC-CA1 synapse [1]; wild-type slices): 204±40 % of baseline

SMILES: COc1ccc(C[C@H]2NC[C@H](O)[C@H]2OC(C)=O)cc1 [anisomycin]
Sensitivity of LTP elicited by two trains to preincubation with the drug (SC-CA1 synapse [2]; wild-type slices, anisomycin (FIG. 4C)): completely insensitive | Effect on protein synthesis in area CA1 [9]: completely block protein synthesis

SMILES: COC[C@@H]([C@H](O)[C@H](O)C(=O)NCC[C@H](C)c1nc(/C=C/C[C@@H]2O[C@]3(C[C@@H](O)[C@@H]2C)O[C@H]([C@H](C[C@H](O)[C@H](C)[C@H](O)[C@H](C)/C=C(C)/C(C)=C/C=C/C(C)=C\C#N)OC)[C@H](OP(=O)(O)O)C3(C)C)co1)N(C)C [calyculin A]
LTP induced with two 100 Hz trains after drug pretreatment, mutant versus wild-type (SC-CA1 synapse [2]; Tet-CN279 mutant slices, 750 nM, 30 minutes pretreatment): indistinguishable from that seen in wild-type

From patent US20020129385A1, “MEDTHODS FOR IMPROVING LONG-TERM MEMORY STORAGE AND RETRIEVAL” (priority 1998, published 2002)
